Measurements reported in US7138425B2, “Phthalimide carboxylic acid derivatives” (Oxford Glycoscience (UK) Ltd., priority 2002, dated 2006).

What was measured:
human heparanase = molecular target: T1, human heparanase (Homo sapiens, UniProt Q9Y251); test: Heparanase assay (bFGF binding to heparan sulfate, plate ELISA); format: biochemical; conditions: human heparanase expressed in insect cells, pH 5.5, 2 h at 37° C.; read-out: Inhibition of Heparanase (IC50)
T1 construct: made in house; host or cells: insect cells
T1 sequence (Q9Y251 158-543 limits assumed): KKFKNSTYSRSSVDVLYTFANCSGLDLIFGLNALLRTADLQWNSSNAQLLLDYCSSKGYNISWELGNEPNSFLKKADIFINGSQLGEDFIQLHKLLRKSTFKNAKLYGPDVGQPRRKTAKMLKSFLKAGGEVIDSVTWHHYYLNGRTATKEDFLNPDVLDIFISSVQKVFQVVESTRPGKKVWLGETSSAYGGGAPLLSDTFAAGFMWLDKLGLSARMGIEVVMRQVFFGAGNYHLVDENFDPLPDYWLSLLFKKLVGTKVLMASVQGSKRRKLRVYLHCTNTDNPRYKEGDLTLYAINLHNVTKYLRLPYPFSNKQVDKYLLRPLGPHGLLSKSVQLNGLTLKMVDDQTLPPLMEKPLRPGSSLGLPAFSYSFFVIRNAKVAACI
T1 sequence (Q9Y251 36-109 limits assumed): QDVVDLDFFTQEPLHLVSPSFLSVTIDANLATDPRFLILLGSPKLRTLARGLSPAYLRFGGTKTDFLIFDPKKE
Protocol: The assay is based upon the specific binding of basic fibroblast growth factor (bFGF) to heparan sulfate. […] Heparan sulfate will ordinarly adhere to plastic well plate surfaces. Following cleavage of high molecular weight heparan sulfate by heparanase, the smaller material generated will no longer adhere to the surface of a well plate. Thus, upon addition to the plate of bFGF, heparanase activity can be followed as a reduction in bFGF binding.
Nunc Maxisorp 96-well plates are coated for 16 h at room temperature with 100 μl/well 0.04 mg/ml heparan sulfate in PBS. The wells are then aspirated and blocked for 1 h with 200 μl/well 1% BSA-PBS. Following five washes with 0.01% BSA, 0.05% Tween20 PBS (wash buffer), 100 μl of recombinant human basic FGF (90 ng/ml in 0.1% BSA/PBS) is added per well and the plate is incubated at room temperature for 1 h.
The human heparanase used is expressed in insect cells. The wells are washed again with wash buffer and 100 μl of bFGF antibody-horse radish peroxidase conjugate is added. The plate is then incubated at room temperature for 1 h and subsequently washed five times with wash buffer. 100 μl of TMB peroxidase substrate is added and the colour allowed to develop for 10 min. The reaction is stopped with 50 μl 1M H2SO4 and the colour intensity is read at 450 nm on a plate reader.

human endothelial cells = test: Angiogenesis assay (AngioKit, tubule formation, PECAM-1 staining); format: cell-based; conditions: Endothelial cell, 264 h, AngioKit co-culture, tubule formation on day 11, PECAM-1 staining relative to untreated control, read-out: Inhibition of angiogenesis (IC50)
From the text: A commercial angiogenesis assay for analysing the angiogenic or anti-angiogenic properties of test compounds (AngioKit catalogue no. ZHA-1000, TCS CellWorks Ltd, Buckingham, U.K) was used. In this assay, human endothelial cells were co-cultured with other human cells in a specifically designed medium. The endothelial cells initially form small islands within the culture matrix. They subsequently proliferate and then enter a migratory phase during which they move through the matrix to form threadlike tubule structures. These gradually join up (by 12–14 days) to form networks of […] tubules which closely resemble a capillary bed structure. These tubules stain positive for von Willebrand's Factor, Platelet Endothelial Cell Adhesion Molecule-1 (PECAM-1 or CD31) and Intercellular Adhesion Molecule-2 (ICAM-2).
The assay is supplied as growing cultures at the earliest stage of tubule formation in a 24 well plate format It is designed so that test compounds and conditioned media can be added to the cultures within individual wells. The resulting effect on tubule formation can then be monitored. Positive and negative test agents are provided in the kit, e.g. Vascular Endothelial Growth Factor (VEGF) and sumarin. All reagents were included as part of the kit and the assay was performed according to the protocol supplied by TCS CellWorks Ltd. Briefly, on day 1, fresh growth medium, medium plus control agent or medium plus test compound was added to the cells and the cultures were incubated at 37° C., 5% CO2. […] The specified medium was changed at days 4, 7 and 9 and the cells were monitored for growth. On day 11, the cells were washed with Dulbecco's Phosphate-Buffered Saline (PBS) and fixed using 70% ethanol (−20° C.) for 30 min at room temperature. After fixing, the cells were washed and treated with blocking buffer, 1% BSA in PBS. The cells were stained for PECAM-1 on the same day, following standard immunohistochemistry procedures well known to those skilled in the art, using mouse anti-human CD31 as the primary antibody and a goat anti-mouse IgG alkaline phosphate conjugate. Tubule formation was quantitatively assessed by measuring PECAM-1 positive staining using the image analysis program “Matrox inspector” to evaluate the percentage tubule staining relative to an untreated control.

Row | IC50 (human heparanase) [nM] | IC50 (human endothelial cells) [nM] | Compound
1 | 500 | 1000 | COc1ccc(-c2nc3cc(-c4cc5ccccc5o4)ccc3o2)cc1N1C(=O)c2ccc(C(=O)O)cc2C1=O [Example 15, 2-[2-Methoxy-5-[5-(benzofuran-2-yl)benzoxazol-2-yl]phenyl]-1,3-dioxo-2,3-dihydro-1H-isoindole-5-carboxylic acid]
2 | 800 | 2000 | COc1ccc(-c2nc3cc(-c4ccc(N(C)C)cc4)ccc3o2)cc1N1C(=O)c2ccc(C(=O)O)cc2C1=O [Example 97, 2-[2-Methoxy-5-[5-(4-N,N-dimethylaminophenyl)benzoxazol-2-yl]phenyl]-1,3-dioxo-2,3-dihydro-1H-isoindole-5-carboxylic acid]
3 | 600 | 5000 | CCCNc1ccc(N2C(=O)c3ccc(C(=O)O)cc3C2=O)cc1-c1nc2cc(-c3cc4ccccc4s3)ccc2o1 [Example 110, 2-[4-Propylamino-5-[5-(2-benzothiophenyl)benzoxazol-2-yl]phenyl]-1,3-dioxo-2,3-dihydro-1H-isoindole-5-carboxylic acid]
4 | 700 | 5000 | O=C(O)c1ccc2c(c1)C(=O)N(c1cccc(-c3nc4cc5ccccc5cc4o3)c1)C2=O [Example 2, 2-[3-(Naphth[2,3-d]oxazol-2-yl)phenyl]-2,3-dihydro-1,3-dioxo-1H-isoindole-5-carboxylic acid]
5 | 800 | 2000 | CCCNc1ccc(N2C(=O)c3ccc(C(=O)O)cc3C2=O)cc1-c1nc2ccc(F)cc2o1 [Example 66, 2-[3-(6-Fluorobenzoxazol-2-yl)-4-propylaminophenyl]-1,3-dioxo-2,3-dihydro-1H-isoindole-5-carboxylic acid]
6 | 800 | 5000 | CCCNc1ccc(N2C(=O)c3ccc(C(=O)O)cc3C2=O)cc1-c1nc2ccc(C)cc2o1 [Example 65, 2-[3-(6-Methylbenzoxazol-2-yl)-4-propylaminophenyl]-1,3-dioxo-2,3-dihydro-1H-isoindole-5-carboxylic acid]
7 | 500 | 2000 | CCCNc1ccc(N2C(=O)c3ccc(C(=O)O)cc3C2=O)cc1-c1nc2cc(-c3cc4ccccc4o3)ccc2o1 [Example 108, 2-[4-Propylamino-3-[5-(2-benzofuranyl)benzoxazol-2-yl]phenyl]-1,3-dioxo-2,3-dihydro-1H-isoindole-5-carboxylic acid]
8 | 400 | 200 | COc1ccc(-c2nc3cc(-c4cc5ccccc5s4)ccc3o2)cc1N1C(=O)c2ccc(C(=O)O)cc2C1=O [Example 92, 2-[2-Methoxy-5-[5-(2-benzothiophenyl)benzoxazol-2-yl]phenyl]-1,3-dioxo-2,3-dihydro-1H-isoindole-5-carboxylic acid]
9 | 500 | 500 | CCCNc1ccc(N2C(=O)c3ccc(C(=O)O)cc3C2=O)cc1-c1nc2cc(Br)cc(F)c2o1 [Example 71, 2-[3-(5-Bromo-7-fluorobenzoxazol-2-yl)-4-propylaminophenyl]-1,3-dioxo-2,3-dihydro-1H-isoindole-5-carboxylic acid]

Row | Compound | IC50 (human heparanase) [nM] | IC50 (human endothelial cells) [nM]
10 | CCCNc1ccc(N2C(=O)c3ccc(C(=O)O)cc3C2=O)cc1-c1nc2cc(-c3ccc(F)cc3)ccc2o1 [Example 115, 2-[4-Propylamino-5-[5-(4-fluorophenyl)benzoxazol-2-yl]phenyl]-1,3-dioxo-2,3-dihydro-1H-isoindole-5-carboxylic acid] |  | 250
11 | CCCNc1ccc(N2C(=O)c3ccc(C(=O)O)cc3C2=O)cc1-c1nc2cc(-c3ccc(Cl)cc3)ccc2o1 [Example 112, 2-[4-Propylamino-5-[5-(4-chlorophenyl)benzoxazol-2-yl]phenyl]-1,3-dioxo-2,3-dihydro-1H-isoindole-5-carboxylic acid] |  | 2000
12 | COc1ccc(-c2ccc3oc(-c4ccc(OC)c(N5C(=O)c6ccc(C(=O)O)cc6C5=O)c4)nc3c2)cc1 [Example 27, 2-[2-Methoxy-5-[5-(4-methoxy)phenylbenzoxazol-2-yl]phenyl]-1,3-dioxo-2,3-dihydro-1H-isoindole-5-carboxylic acid] |  | 15000
13 | COc1ccc(-c2nc3cc(-c4ccccc4)ccc3o2)cc1N1C(=O)c2ccc(C(=O)O)cc2C1=O [Example 9, 2-[2-Methoxy-5-(5-phenylbenzoxazol-2-yl)phenyl]-1,3-dioxo-2,3-dihydro-1H-isoindole-5-carboxylic acid] |  | 1000
14 | O=C(O)c1ccc2c(c1)C(=O)N(c1cccc(-c3nc4ccccc4o3)c1)C2=O [Example 1, 2-[3-(Benzoxazol-2-yl)phenyl]-2,3-dihydro-1,3-dioxo-1H-isoindole-5-carboxylic acid] |  | 40000
15 | COc1ccc(N2C(=O)c3ccc(C(=O)O)cc3C2=O)cc1-c1nc2cc(-c3cc(F)cc(F)c3)ccc2o1 [Example 104, 2-[4-Methoxy-5-[5-(3,5-difluorophenyl)benzoxazol-2-yl]phenyl]-1,3-dioxo-2,3-dihydro-1H-isoindole-5-carboxylic acid] |  | 750
16 | CCCNc1ccc(N2C(=O)c3ccc(C(=O)O)cc3C2=O)cc1-c1nc2cc(-c3ccc(OC(F)(F)F)cc3)ccc2o1 [Example 116, 2-[4-Propylamino-5-[5-(4-trifluoromethoxy)phenylbenzoxazol-2-yl]phenyl]-1,3-dioxo-2,3-dihydro-1H-isoindole-5-carboxylic acid] |  | 100
17 | COc1ccc(N2C(=O)c3ccc(C(=O)O)cc3C2=O)cc1-c1nc2cc(-c3ccc4c(c3)OCO4)ccc2o1 [Example 105, 2-[4-Methoxy-5-[5-(3,4-methylenedioxyphenyl)benzoxazol-2-yl]phenyl]-1,3-dioxo-2,3-dihydro-1H-isoindole-5-carboxylic acid] |  | 3000
